Measurements: the supplement of paper PMC13380429
Structures can show the parent of a compound that is named as a salt. ± gives the standard deviation of the averaged measurements.

Legend:
Conditions in all cases: 72 h
Vero E6 [1] = assay: drug sensitivity score (DSS) for viability; higher = more toxic; extreme values may be limits of the assay
Vero E6 [2] = assay: relative viability EC50 (midpoint between 100% and the lowest measured viability); higher = less toxic
Vero E6 [3] = assay: cell viability relative to DMSO; higher = less toxic
Calu-3 [4] = assay: drug sensitivity score (DSS) for viability; higher = more toxic; extreme values may be limits of the assay
U2OS [5] = assay: as above
HepG2 [6] = assay: as above
Caco-2 [7] = assay: as above
U2OS [8] = assay: relative viability EC50 (midpoint between 100% and the lowest measured viability); higher = less toxic
HepG2 [9] = assay: as above
Caco-2 [10] = assay: cell viability relative to DMSO; higher = less toxic
Calu-3 [11] = assay: as above
U2OS [12] = assay: as above
HepG2 [13] = assay: as above
Caco-2 [14] = assay: relative viability EC50 (midpoint between 100% and the lowest measured viability); higher = less toxic

SMILES | drug sensitivity score (Vero E6 [1]) | relative viability EC50 (Vero E6 [2]) | cell viability (Vero E6 [3]; 1 nM) | cell viability (Vero E6 [3]; 10 nM) | cell viability (Vero E6 [3]; 100 nM) | cell viability (Vero E6 [3]; 1000 nM) | cell viability (Vero E6 [3]; 10000 nM) | drug sensitivity score (Calu-3 [4]) | drug sensitivity score (U2OS [5]) | drug sensitivity score (HepG2 [6]) | drug sensitivity score (Caco-2 [7]) | relative viability EC50 (U2OS [8]) | relative viability EC50 (HepG2 [9]) | cell viability (Caco-2 [10]; 1 nM) | cell viability (Caco-2 [10]; 10 nM) | cell viability (Caco-2 [10]; 100 nM) | cell viability (Caco-2 [10]; 1000 nM) | cell viability (Caco-2 [10]; 10000 nM) | cell viability (Calu-3 [11]; 1 nM) | cell viability (Calu-3 [11]; 10 nM) | cell viability (Calu-3 [11]; 100 nM) | cell viability (Calu-3 [11]; 1000 nM) | cell viability (Calu-3 [11]; 10000 nM) | cell viability (U2OS [12]; 1 nM) | cell viability (U2OS [12]; 10 nM) | cell viability (U2OS [12]; 100 nM) | cell viability (U2OS [12]; 1000 nM) | cell viability (U2OS [12]; 10000 nM) | cell viability (HepG2 [13]; 1 nM) | cell viability (HepG2 [13]; 10 nM) | cell viability (HepG2 [13]; 100 nM) | cell viability (HepG2 [13]; 1000 nM) | cell viability (HepG2 [13]; 10000 nM) | relative viability EC50 (Caco-2 [14])
COc1ccc(-c2oc3c(CC=C(C)C)c(O)cc(O)c3c(=O)c2O)cc1 [icaritin] | 0 | > 10 µM | 92.9% | 98.9% | 96.7% | 93.3% | 107% | – | – | – | – | – | – | – | – | – | – | – | – | – | – | – | – | – | – | – | – | – | – | – | – | – | – | –
O=C(O)C(O)C(O)C(=O)O (configuration not stated) [tartaric-acid] | 0 | – | – | – | – | – | – | 0 | 0 | 0 | – | – | – | – | – | – | – | – | – | – | – | – | – | – | – | – | – | – | – | – | – | – | – | –
CCN1CCN(Cc2ccc(Nc3ncc(F)c(-c4cc(F)c5nc(C)n(C(C)C)c5c4)n3)nc2)CC1 [abemaciclib] | 6.1 | 1.35 µM | 101% | 100% | 95.3% | 77.9% | 38% | 8.1 | 7.6 | 12.5 | 4.2 | 2.16 µM | 0.741 µM | 109% | 97.2% | 90.7% | 78.8% | 67.8% | 106% | 108% | 89.4% | 63% | 74.7% | 107% | 107% | 108% | 87.6% | 0.1% | 101% | 94.8% | 84.1% | 47.1% | 0.9% | –
CCN(CC)CCOC(=O)C(Cc1cccc2ccccc12)CC1CCCO1 (mixture of isomers) [naftidrofuryl] | 0.2 | – | – | – | – | – | – | 0 | – | – | – | – | – | – | – | – | – | – | – | – | – | – | – | – | – | – | – | – | – | – | – | – | – | –
CN1C(=O)N(C)C2C1N(C)C(=O)N2C (configuration not stated) [mebicar] | – | – | – | – | – | – | – | – | 0 | 0 | 0 | > 10 µM | > 10 µM | 101% | 106% | 98.5% | 97.9% | 95.8% | – | – | – | – | – | 104% | 104% | 99.8% | 106% | 102% | 110% | 107% | 114% | 97.9% | 92.2% | > 10 µM
CCCCC1C(=O)N(c2ccccc2)N(c2ccccc2)C1=O [phenylbutazone] | 0 | – | – | – | – | – | – | 0 | 0 | 0 | – | – | – | – | – | – | – | – | – | – | – | – | – | – | – | – | – | – | – | – | – | – | – | –
CN[C@H]1CN(c2ccc3c(=O)c(C(=O)O)cn(-c4nccs4)c3n2)C[C@@H]1OC [voreloxin] | 4 | – | 96.9% | 96.2% | 96.7% | 88.1% | 56.1% | 4.1 | 3.6 | 6.9 | 3.7 | 2.93 µM | 1.29 µM | 94.1% | 93.2% | 99.9% | 91.6% | 55.1% | 101% | 98.9% | 104% | 85.6% | 58.9% | 100% | 97.6% | 103% | 98% | 38.3% | 90.7% | 108% | 88.5% | 72.6% | 29.1% | –
N=c1ccn2c(n1)O[C@H]1[C@H](O)[C@@H](CO)O[C@H]12 [Cyclocytidine HCl] | 4 | – | 98.1% | 97.1% | 98.5% | 87.4% | 58.3% | 2.7 | 1.4 | 15 | 3.7 | – | 0.115 µM | 88.4% | 99.2% | 83.1% | 80.6% | 77.8% | 91.5% | 99.2% | 101% | 93% | 65.9% | 95.1% | 99.9% | 99.8% | 97.2% | 74.8% | 104% | 103% | 74.1% | 38% | 37.7% | > 10 µM
O=C(CCCN1CC=C(n2c(=O)[nH]c3ccccc32)CC1)c1ccc(F)cc1 [droperidol] | – | – | – | – | – | – | – | – | – | 0 | – | – | > 10 µM | – | – | – | – | – | – | – | – | – | – | – | – | – | – | – | 116% | 113% | 106% | 108% | 89.1% | –
Cc1cccc(C)c1NC(=O)/N=C1\CCCN1C [xilobam] | 0 | – | – | – | – | – | – | 0 | 0 | 0 | – | – | – | – | – | – | – | – | – | – | – | – | – | – | – | – | – | – | – | – | – | – | – | –
COc1ccc(Cl)c(Nc2nc3ccccc3nc2NS(=O)(=O)c2cccc(NC(=O)C(C)(C)N)c2)c1 [pilaralisib] | 0.6 | > 10 µM | 97% | 98.7% | 93.8% | 99.4% | 81.2% | 3.5 | 1.1 | 3.8 | 2.4 | > 10 µM | – | 91.3% | 96.4% | 109% | 93.9% | 68.3% | 93.9% | 86% | 96.8% | 88% | 60.2% | 97.9% | 94.4% | 98.9% | 94.1% | 81.4% | 96.9% | 97.5% | 96.9% | 86.6% | 57.9% | –
O=C(CCBr)N1CCN(C(=O)CCBr)CC1 [pipobroman] | – | – | – | – | – | – | – | – | 0 | 0 | 0 | > 10 µM | > 10 µM | 115% | 115% | 97.3% | 114% | 99% | – | – | – | – | – | 97.8% | 104% | 99.7% | 97.7% | 94% | 90.2% | 112% | 101% | 83.7% | 102% | > 10 µM
O=C(O)c1c(Cl)c(Cl)c(Cl)c(Cl)c1-c1c2cc(I)c(=O)c(I)c-2oc2c(I)c(O)c(I)cc12 [rose-bengal] | 3.7 ± 0.42 | – | 97.6 ± 4% | 99.6% | 101 ± 3% | 90.5 ± 0.42% | 57.1 ± 5.8% | 3 ± 1.4 | 3.6 ± 0.42 | 3.8 ± 0.85 | 4.6 ± 0.14 | – | – | 96.1 ± 5.2% | 93.7 ± 6.9% | 98.4 ± 7.9% | 83.3 ± 0.92% | 52.2 ± 6.1% | 96 ± 5.7% | 96.7 ± 3.9% | 97.2 ± 4.7% | 97.8 ± 12% | 54.4 ± 0.71% | 99.5 ± 3% | 101 ± 7.5% | 98.8 ± 0.28% | 92.65 ± 0.49% | 54 ± 5.6% | 98.5 ± 1.1% | 92.7 ± 7% | 102 ± 3.8% | 86.2 ± 5.3% | 61.6 ± 4.2% | –
NC[C@@H]1O[C@H](O[C@@H]2[C@@H](CO)OC(O[C@@H]3[C@@H](O)[C@H](N)C[C@H](N)[C@H]3OC3O[C@H](CN)[C@@H](O)[C@H](O)[C@H]3N)[C@@H]2O)[C@H](N)[C@@H](O)[C@@H]1O (some centres not stated) [NEOMYCIN TRISULFATE] | – | – | – | – | – | – | – | – | – | – | 0 | – | – | 96.6% | 103% | 96.3% | 91.7% | 97.3% | – | – | – | – | – | – | – | – | – | – | – | – | – | – | – | > 10 µM
COc1cc(N2CCC(N3CCN(C)CC3)CC2)ccc1Nc1ncnc(Nc2ccccc2S(=O)(=O)C(C)C)n1 [ASP3026] | 4 | – | 92.9% | 97.9% | 100% | 90.9% | 51.7% | – | 1.4 | 6 | 2.5 | – | 1.98 µM | 102% | 101% | 95.7% | 92.7% | 68.6% | – | – | – | – | – | 100% | 94.5% | 99.6% | 98.5% | 70.9% | 107% | 96.6% | 99.7% | 88.7% | 25.2% | –
O.O.O.O.O=C([O-])CC(O)(CC(=O)[O-])C(=O)[O-].[Li+].[Li+].[Li+] [lithium-citrate] | 0 | – | – | – | – | – | – | 0 | 0 | – | – | – | – | – | – | – | – | – | – | – | – | – | – | – | – | – | – | – | – | – | – | – | – | –
CN(C)CCOc1ccc(/C(=C(/CCCl)c2ccccc2)c2ccccc2)cc1 [Toremifene citrate] | 0 | > 10 µM | 99.6% | 99.3% | 99.8% | 97.6% | 91.9% | 3.4 | 0.1 | 2.8 | 2.6 | > 10 µM | – | 109% | 98.8% | 93.7% | 96.3% | 60.4% | 94.1% | 100% | 88.7% | 90.4% | 57.5% | 106% | 103% | 105% | 99% | 87.8% | 110% | 103% | 104% | 90% | 68.8% | –
CC(C)(C)c1cc(/C=C(\C#N)C(N)=S)cc(C(C)(C)C)c1O [tyrphostin-AG-879] | 2.6 | – | 97.4% | 97.5% | 94.3% | 100% | 51% | 2.9 | 1.8 | 3.6 | 3.8 | – | 3.56 µM | 99.3% | 94.6% | 96.9% | 93.2% | 50.5% | 101% | 97.1% | 99.4% | 91% | 66.8% | 98.9% | 98.7% | 98.7% | 98.2% | 65.7% | 93.6% | 94.7% | 104% | 106% | 27.5% | –
